Test results from patent US10065990B2, “Cyclic peptide compound, and preparation method, pharmaceutical composition and use thereof” (HANGZHOU GUANYU BIO-MEDICAL CO., LTD, priority 2013, dated 2018).

Legend:
Test in all cases: MTT cancer cell growth inhibition
Format in all cases: cell-based
[1] = test system: BGC-823 (human gastric cancer cells); conditions: Homo sapiens, BGC-823, 72 h, MTT, 72 hours incubation; read-out: GI50 BG
Summary of the method: (§1)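 72 h exposure, final drug 10^−5–10^−10 M, triplicate wells; 1500 cells/well plated the day before; medium DMEM or 1640 + 10% FBS; 37° C./5% CO2. MTT (5 mg/ml stock) 4 h, DMSO solubilisation, A570 → % viability → GI50.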

[2] = test system: Bel-7402 (human hepatoma cells); conditions: Homo sapiens, Bel-7402, 72 h, MTT, 72 hours incubation, Bel-7402 cells; read-out: GI50 Bel-7402
Summary of the method: as §1

[3] = test system: DU145 (human prostate cancer cells); conditions: Homo sapiens, DU-145, 72 h, MTT, 72 hours incubation; read-out: GI50 Du1
Summary of the method: as §1

[4] = test system: HCC827 (human non-small cell lung cancer cells); conditions: Homo sapiens, HCC827, 72 h, MTT, 72 hours incubation, HCC827 cells; read-out: GI50 HCC827
Summary of the method: as §1

[5] = test system: HT1080 (human fibrosarcoma cells); conditions: Homo sapiens, HT-1080, 72 h, MTT, 72 hours incubation; read-out: GI50 HT1
Summary of the method: as §1

[6] = test system: Hela (human cervical cancer cells); conditions: Homo sapiens, HeLa, 72 h, MTT, 72 hours incubation; read-out: GI50 Hela
Summary of the method: as §1

[7] = test system: Huh-7 (human hepatoma cells); conditions: Homo sapiens, Huh-7, 72 h, MTT, 72 hours incubation, Huh-7 cells; read-out: GI50 Huh-7
Summary of the method: as §1

[8] = test system: K562 (human leukemia cells); conditions: Homo sapiens, K562, 72 h, MTT, 72 hours incubation, K562 cells; read-out: GI50 K562
Summary of the method: as §1

[9] = test system: KBM-5 (human chronic myelogenous leukemia); conditions: Homo sapiens, KBM5, 72 h, MTT, 72 hours incubation, KBM-5 cells; read-out: GI50 KBM-5
Summary of the method: as §1

[10] = test system: MDA-MB-231 (breast cancer cells); conditions: Homo sapiens, MDA-MB-231, 72 h, read-out: GI50 MDA-MB-231, MTT, 72 hours incubation, MDA-MB-231 cells
Summary of the method: as §1

[11] = test system: N-87 (human gastric cancer cells); conditions: Homo sapiens, 72 h, MTT, 72 hours incubation, N-87 cells; read-out: GI50 N-87
Summary of the method: as §1

[12] = test system: PANC-1 (Pac-1, human pancreatic cancer cells); conditions: Homo sapiens, PANC-1, 72 h, MTT, 72 hours incubation; read-out: GI50 PAN
Summary of the method: as §1

[13] = test system: SGC-7901 (human gastric cancer cells); conditions: Homo sapiens, SGC-7901, 72 h, MTT, 72 hours incubation, SGC-7901 cells; read-out: GI50 SGC-7901
Summary of the method: as §1

[14] = test system: U937 (human leukemia cells); conditions: Homo sapiens, U-937, 72 h, MTT, 72 hours incubation; read-out: GI50 U93
Summary of the method: as §1

[15] = test system: lncap (prostate cancer cells); conditions: Homo sapiens, LNCaP, 72 h, MTT, 72 hours incubation; read-out: GI50 lnca
Summary of the method: as §1

| Structure (SMILES) | GI50 [1] [nM] | GI50 [2] [nM] | GI50 [3] [nM] | GI50 [4] [nM] | GI50 [5] [nM] | GI50 [6] [nM] | GI50 [7] [nM] | GI50 [8] [nM] | GI50 [9] [nM] | GI50 [10] [nM] | GI50 [11] [nM] | GI50 [12] [nM] | GI50 [13] [nM] | GI50 [14] [nM] | GI50 [15] [nM] |
| --- | --- | --- | --- | --- | --- | --- | --- | --- | --- | --- | --- | --- | --- | --- | --- |
| C/C=C1\NC(=O)c2cccc(n2)CNC(=O)C[C@@H](/C=C/CCSC(C)=O)OC(=O)[C@H](CCCCNC(=O)OCC2c3ccccc3-c3ccccc32)NC1=O [Compound 16] | 2100 | 91 | 6100 | 49 | 1300 | 21000 | 43 | 25 | 82 | 93 | 27 | 4100 | 51 | 17900 | 82100 |
| C/C=C1\NC(=O)c2cc(F)cc(n2)CNC(=O)C[C@@H](/C=C/CCSC(=O)CCCCCCC)OC(=O)[C@H](CC)NC1=O [Compound 55] | 50 | 81 | 30 | 81 | 80 | 80 | 29 | 36 | 89 | 29 | 55 | 80 | 59 | 50 | 20 |
| C/C=C1\NC(=O)c2nccc(n2)CNC(=O)C[C@@H](/C=C/CCSC(C)=O)OC(=O)[C@H](C)NC1=O [Example 24] | 220 | 95 | 20 | 31 | 40 | 500 | 51 | 37 | 68 | 86 | 35 | 220 | 18 |  | 30 |
| C/C=C1\NC(=O)c2cccc(n2)CNC(=O)C[C@@H](/C=C/CCSC(C)=O)OC(=O)[C@H](C)NC1=O [Compound 12] | 90 | 72 |  | 37 | 60 | 50 | 86 | 24 | 72 | 84 | 28 | 80 | 36 |  |  |
| C/C=C1\NC(=O)c2cccc(n2)CNC(=O)C[C@@H](/C=C/CCSC(C)=O)OC(=O)[C@H](CC)NC1=O [Compound 10] | 90 | 95 |  | 26 | 80 | 70 | 51 | 73 | 61 | 98 | 38 | 80 | 23 |  |  |
| C/C=C1\NC(=O)c2cc(F)cc(n2)CNC(=O)C[C@@H](/C=C/CCSC(=O)CCC)OC(=O)[C@H](C(C)C)NC1=O [Compound 43] | 30 | 73 | 50 |  | 70 | 80 | 36 | 52 | 81 | 36 | 38 |  | 52 | 60 | 30 |
| C/C=C1\NC(=O)c2cccc(n2)CCNC(=O)C[C@@H](/C=C/CCS)OC(=O)[C@H](C(C)C)NC1=O [Compound 146] |  | 35 | 50 | 45 | 80 | 40 | 65 | 43 | 33 | 56 | 23 |  | 35 | 30 | 40 |
| C/C=C1\NC(=O)c2cc(F)cc(n2)CNC(=O)C[C@@H](/C=C/CCSC(=O)CCCCCCC)OC(=O)[C@H](Cc2ccccc2)NC1=O [Compound 70] | 50 |  | 50 |  |  | 90 | 36 | 52 | 93 | 36 | 53 |  | 43 | 60 | 30 |
| C=C1NC(=O)c2cccc(n2)CNC(=O)C[C@@H](/C=C/CCSC(C)=O)OC(=O)[C@H](C(C)C)NC1=O [Compound 19] | 90 | 97 |  | 48 | 70 | 60 | 92 | 26 | 53 | 95 | 51 | 600 | 52 |  | 580 |
| C/C=C1\NC(=O)c2cccc(n2)CNC(=O)C[C@@H](/C=C/CCSC=O)OC(=O)[C@H](C(C)C)NC1=O [Compound 8] | 90 | 94 |  | 41 | 90 | 70 | 61 | 53 | 51 | 93 | 34 | 80 | 43 |  |  |
| C/C=C1\NC(=O)c2cccc(n2)CNC(=O)C[C@@H](/C=C/CCSC(=O)CCC)OC(=O)[C@H](C(C)C)NC1=O [Compound 5] | 60 | 93 |  | 55 | 70 | 50 | 72 | 32 | 72 | 82 | 37 | 60 | 43 |  |  |
| C/C=C1\NC(=O)c2cccc(n2)CCNC(=O)C[C@@H](/C=C/CCSC(C)=O)OC(=O)[C@H](C(C)C)NC1=O [Example 26] | 5400 | 97 | 11700 | 55 | 18000 | 37000 | 51 | 17 |  | 98 | 39 | 770 | 37 | 9500 | 9000 |
| C/C=C1\NC(=O)c2cccc(n2)CNC(=O)C[C@@H](/C=C/CCSC(=O)CC)OC(=O)[C@H](C(C)C)NC1=O [Compound 6] | 70 | 86 |  | 65 | 80 | 60 | 58 | 33 | 61 | 84 | 28 | 60 | 51 |  |  |
| C/C=C1\NC(=O)c2cccc(n2)CNC(=O)C[C@@H](/C=C/CCSC(=O)CCCC)OC(=O)[C@H](C(C)C)NC1=O [Compound 4] | 60 | 92 |  | 22 | 70 | 50 | 86 | 61 | 74 | 86 | 53 | 60 | 34 |  |  |
